Source: patent US20070037788A1, “Tricyclic steroid hormone nuclear receptor modulators” (Eli Lilly and Company, priority 2003, published 2007)
pKi: −log10 of the molar value. Counter-ions that a name gives are not always drawn.

Target: T1, human GR (glucocorticoid receptor) (Homo sapiens, UniProt P04150)
T1 construct: expressed in transfected cells; host or cells: 293 cells
T1 sequence (P04150 1-777): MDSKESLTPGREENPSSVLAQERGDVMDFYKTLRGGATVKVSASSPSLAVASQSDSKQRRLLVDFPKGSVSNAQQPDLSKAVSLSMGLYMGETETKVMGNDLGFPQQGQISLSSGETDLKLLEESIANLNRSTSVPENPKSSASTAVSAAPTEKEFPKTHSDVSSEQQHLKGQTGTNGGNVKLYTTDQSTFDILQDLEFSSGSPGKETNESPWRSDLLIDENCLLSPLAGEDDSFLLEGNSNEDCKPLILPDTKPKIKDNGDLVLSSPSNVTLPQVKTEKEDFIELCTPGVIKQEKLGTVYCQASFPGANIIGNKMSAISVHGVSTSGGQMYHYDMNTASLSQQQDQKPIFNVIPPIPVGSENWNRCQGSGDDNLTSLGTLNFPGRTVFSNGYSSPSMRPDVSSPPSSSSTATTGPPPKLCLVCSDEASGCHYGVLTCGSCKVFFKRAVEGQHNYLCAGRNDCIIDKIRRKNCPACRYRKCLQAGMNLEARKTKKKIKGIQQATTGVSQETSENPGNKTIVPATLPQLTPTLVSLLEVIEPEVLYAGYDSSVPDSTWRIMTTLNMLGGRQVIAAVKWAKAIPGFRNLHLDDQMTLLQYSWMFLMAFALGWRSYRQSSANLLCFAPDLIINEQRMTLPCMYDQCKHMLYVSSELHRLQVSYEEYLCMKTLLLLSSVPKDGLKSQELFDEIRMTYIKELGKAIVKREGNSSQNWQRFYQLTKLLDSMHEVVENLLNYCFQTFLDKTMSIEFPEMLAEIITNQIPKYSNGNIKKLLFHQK
Assay: Alternative Binding Assay Protocol (Method 2), GR
Details: 293-GR lysate, 3H-dexamethasone
Method: Cell lysates from 293 cells overexpressing human GR (glucocorticoid receptor), AR (androgen receptor), MR (mineralocorticoid receptor) or PR (progesterone receptor) are used for competition binding assays to determine Ki values for test compounds. Briefly, competition binding assays are run in a buffer containing 20 mM Hepes, pH 7.6, 0.2 mM EDTA, 75 mM NaCl, 1.5 mM MgCl2, 20% glycerol, 20 mM sodium molybdate, 0.2 mM DTT, 20 ug/ml aprotinin and 20 ug/ml leupeptin, using either 0.3 nM ^3H-dexamethasone for GR binding, 0.36 nM ^3H-methyltrienolone for AR binding, 0.25 nM ^3H-aldosterone for MR binding, or 0.29 nM ^3H-methyltrienolone for PR binding, and either 20 ug 293-GR lysate, 22 ug 293-AR lysate, 20 ug 293-MR lysate or 40 ug 293-PR lysate per well. Competing compounds are added at various concentrations in half-log increments. Non-specific binding is determined in the presence of 500 nM dexamethasone for GR binding, 500 nM aldosterone for MR binding, or 500 nM methyltrienolone for AR and PR binding. The binding reaction (140 μl) is incubated for overnight at 4° C., then 70 μl of cold charcoal-dextran buffer (containing per 50 ml of assay buffer, 0.75 g of charcoal and 0.25 g of dextran) is added to each reaction. Plates are mixed 8 minutes on an orbital shaker at 4° C. Plates are then centrifuged at 3,000 rpm at 4° C. for 10 minutes. An aliquot of 120 μl of the mix is transferred to another 96-well plate and 175 μl of Wallac Optiphase “Hisafe 3” scintillation fluid is added to each well. Plates are sealed and shaken vigorously on an orbital shaker. After an incubation of 2 hrs, plates are read in a Wallac Microbeta counter. The data is used to calculate an IC50 and % Inhibition at 10 μM. The Kd for ^3H-dexamethasone for GR binding, ^3H-methyltrienolone for AR binding, ^3H-aldosterone for MR binding, or ^3H-methyltrienolone for PR binding, is determined by saturation binding. The IC50 values for compounds are converted to Ki using Cheng-Prusoff equation and the Kd determined by saturation binding assay.

| pKi | SMILES |
| --- | --- |
| > 6.30 | CCN1CC[C@H](n2c(=O)[nH]c3cc(/C=C4\c5ccc(F)cc5COc5cc(F)ccc54)ccc32)C1 [Example 33] |
| > 6.00 | CN1CCC(n2c(=O)[nH]c3cc(/C=C4/c5ccc(F)cc5OCc5c(F)cccc54)ccc32)CC1 [Example 2, 5-(3,7-Difluoro-6H-dibenzo[b,e]oxepine-11-ylidenemethyl)-1-(1-methyl-piperidin-4-yl)-1,3-dihydro-benzoimidazol-2-one, E-isomer] |
| > 6.00 | CCN1CC[C@@H](n2c(=O)[nH]c3cc(/C=C4/c5ccc(F)cc5OCc5c(F)cccc54)ccc32)C1 [Example 46] |
| > 6.30 | O=c1[nH]c2cc(/C=C3\c4ccc(F)cc4COc4cc(F)ccc43)ccc2n1C1CCNCC1 [Example 28] |
| > 6.30 | O=c1[nH]c2cc(/C=C3/c4ccc(F)cc4OCc4c(F)cccc43)ccc2n1[C@H]1CCNC1 [Example 37] |
| > 6.30 | O=c1[nH]c2cc(/C=C3/c4ccc(F)cc4OCc4c(F)cccc43)ccc2n1CCN1CCNCC1 [Example 43] |
| > 6.00 | CN1CCC(n2c(=O)[nH]c3cc(/C=C4\c5ccc(F)cc5COc5cc(F)ccc54)ccc32)CC1 [Example 4, 5-(3,8-Difluoro-6H-dibenzo[b,e]oxepin-11-ylidenemethyl)-1-(1-methyl-piperidin-4-yl) -1,3-dihydro-benzoimidazol-2-one, E isomer] |
| > 6.30 | CN1CCC(n2c(=O)[nH]c3cc(/C=C4\c5ccccc5COc5cc(F)ccc54)ccc32)CC1 [Example 3, 5-(3-Fluoro-6H-dibenzo[b,e]oxepin-11-ylidenemethyl)-1-(1-methyl-piperidin-4-yl)-1,3-dihydro-benzoimidazol-2-one, E isomer] |
| > 6.00 | CC(C)(CN1CCOCC1)n1c(=O)[nH]c2cc(/C=C3\c4ccc(F)cc4COc4cc(F)ccc43)ccc21 [Example 24] |
| > 6.00 | CC(C)(CN1CCOCC1)n1c(=O)[nH]c2cc(/C=C3/c4ccc(F)cc4OCc4c(F)cccc43)ccc21 [Example 40] |
| > 6.30 | CN1CCN(CCn2c(=O)[nH]c3cc(/C=C4/c5ccc(F)cc5OCc5c(F)cccc54)ccc32)CC1 [Example 34] |
| > 6.30 | O=c1[nH]c2cc(/C=C3\c4ccc(F)cc4COc4cc(F)ccc43)ccc2n1CCN1CCCC1 [Example 21] |
| > 6.00 | CC(C)(CN1CCOCC1)n1c(=O)[nH]c2cc(/C=C3\c4ccccc4COc4cc(F)ccc43)ccc21 [Example 1, 1-(1,1-Dimethyl-2-morpholin-4-yl-ethyl)-5-(3-fluoro-6H-dibenzo[b,e]oxepin-11-ylidenemethyl)-1,3-dihydro-benzoimidazol-2-one, E isomer] |
| > 6.30 | O=c1[nH]c2cc(/C=C3\c4ccc(F)cc4COc4cc(F)ccc43)ccc2n1C1CNC1 [Example 30] |
| > 6.30 | CN1CC[C@H](n2c(=O)[nH]c3cc(/C=C4\c5ccc(F)cc5COc5cc(F)ccc54)ccc32)C1 [Example 32] |
| > 6.30 | O=c1[nH]c2cc(/C=C3\c4ccc(F)cc4COc4cc(F)ccc43)ccc2n1[C@H]1CCNC1 [Example 29] |
| > 6.00 | O=c1[nH]c2cc(/C=C3/c4ccc(F)cc4OCc4c(F)cccc43)ccc2n1CCN1CCCC1 [Example 35] |
| > 6.30 | O=c1[nH]c2cc(/C=C3\c4ccc(F)cc4COc4cc(F)ccc43)ccc2n1[C@@H]1CCNC1 [Example 31] |
| > 6.30 | CN1CCN(CCn2c(=O)[nH]c3cc(/C=C4\c5ccccc5COc5cc(F)ccc54)ccc32)CC1 [Example 8] |
| > 6.00 | C[C@@H](CN1CCOCC1)n1c(=O)[nH]c2cc(/C=C3\c4ccc(F)cc4COc4cc(F)ccc43)ccc21 [Example 23] |
| > 5.00 | CN1CC[C@H](n2c(=O)[nH]c3cc(/C=C4/c5ccc(F)cc5OCc5c(F)cccc54)ccc32)C1 [Example 45] |
| > 6.30 | C[C@H](CN1CCOCC1)n1c(=O)[nH]c2cc(/C=C3/c4ccc(F)cc4OCc4c(F)cccc43)ccc21 [Example 38] |

| pKi | SMILES |
| --- | --- |
| > 6.00 | C[C@@H](CN1CCOCC1)n1c(=O)[nH]c2cc(/C=C3/c4ccc(F)cc4OCc4c(F)cccc43)ccc21 [Example 39] |
| > 6.00 | O=c1[nH]c2cc(/C=C3\c4ccccc4COc4cc(F)ccc43)ccc2n1C[C@H]1CCCN1 [Example 19] |
| > 6.30 | C[C@H](CN1CCOCC1)n1c(=O)[nH]c2cc(/C=C3\c4ccccc4COc4cc(F)ccc43)ccc21 [Example 10] |
| > 6.30 | O=c1[nH]c2cc(/C=C3\c4ccccc4COc4cc(F)ccc43)ccc2n1C1CCNC1 (centres unmarked) [Example 16] |
| > 6.00 | CCN1CC[C@H](n2c(=O)[nH]c3cc(/C=C4/c5ccc(F)cc5OCc5c(F)cccc54)ccc32)C1 [Example 44] |
| > 6.00 | O=c1[nH]c2cc(/C=C3\c4ccccc4COc4cc(F)ccc43)ccc2n1C[C@@H]1CCCN1 [Example 18] |
| > 6.30 | O=c1[nH]c2cc(/C=C3\c4ccccc4COc4cc(F)ccc43)ccc2n1[C@H]1CCNC1 [Example 9] |
| > 6.30 | O=c1[nH]c2cc(/C=C3\c4ccccc4COc4cc(F)ccc43)ccc2n1C1CNC1 [Example 17] |
| > 6.30 | C[C@@H]1CN(CCn2c(=O)[nH]c3cc(/C=C4\c5ccccc5COc5cc(F)ccc54)ccc32)C[C@H](C)O1 [Example 13] |
| > 6.30 | CCN1CC[C@@H](n2c(=O)[nH]c3cc(/C=C4\c5ccc(F)cc5COc5cc(F)ccc54)ccc32)C1 [Example 5, 5-(3,8-Difluoro-6H-dibenzo[b,e]oxepin-11-ylidenemethyl)-1-(1-ethyl-pyrrolidin-3-yl) -1,3-dihydro-benzoimidazol-2-one, HOAc salt, E isomer, chiral] |
| > 6.30 | C[C@@H]1CN(CCn2c(=O)[nH]c3cc(/C=C4\c5ccc(F)cc5COc5cc(F)ccc54)ccc32)C[C@H](C)O1 [Example 25] |
| > 6.30 | O=c1[nH]c2cc(/C=C3/c4ccc(F)cc4OCc4c(F)cccc43)ccc2n1CCCN1CCOCC1 [Example 42] |
| > 6.30 | C[C@H](CN1CCOCC1)n1c(=O)[nH]c2cc(/C=C3\c4ccc(F)cc4COc4cc(F)ccc43)ccc21 [Example 22] |
| > 6.30 | CN1CCN(CCn2c(=O)[nH]c3cc(/C=C4\c5ccc(F)cc5COc5cc(F)ccc54)ccc32)CC1 [Example 20] |
| > 6.30 | CN1CCN(CCCn2c(=O)[nH]c3cc(/C=C4\c5ccccc5COc5cc(F)ccc54)ccc32)CC1 [Example 7] |
| > 6.30 | O=c1[nH]c2cc(/C=C3\c4ccc(F)cc4COc4cc(F)ccc43)ccc2n1CCCN1CCOCC1 [Example 26] |
| > 6.00 | O=c1[nH]c2cc(/C=C3\c4ccccc4COc4cc(F)ccc43)ccc2n1C1CCNCC1 [Example 12] |
| > 6.30 | O=c1[nH]c2cc(/C=C3\c4ccccc4COc4cc(F)ccc43)ccc2n1CCN1CCNCC1 [Example 14] |
| > 6.30 | O=c1[nH]c2cc(/C=C3/c4ccc(F)cc4OCc4c(F)cccc43)ccc2n1C1CCNCC1 [Example 36] |
| > 6.30 | C[C@@H]1CN(CCn2c(=O)[nH]c3cc(/C=C4/c5ccc(F)cc5OCc5c(F)cccc54)ccc32)C[C@H](C)O1 [Example 41] |
| > 6.30 | O=c1[nH]c2cc(/C=C3\c4ccccc4COc4cc(F)ccc43)ccc2n1C1CCNC1 (centres unmarked) [Example 15] |
| > 6.30 | C[C@@H](CN1CCOCC1)n1c(=O)[nH]c2cc(/C=C3\c4ccccc4COc4cc(F)ccc43)ccc21 [Example 11] |
